Test results as given in patent US11903912B2, “Composition for preventing and treating breast cancer including selenopsammaplin A as active ingredients” (Seoul National University R & DB Foundation, priority 2019, dated 2024).
pIC50: −log10 of the molar value.

Columns and labels:
[1] = tested on: SK-HEP-1 human liver cancer cells; test: SRB cytotoxicity test, SK-HEP-1; format: cell-based; settings: SRB assay, cultured 3 days
Method: A cytotoxicity test was performed using synthesized selenopsammaplin A and derivatives thereof (Lee S K et al […] Chem Biol Interact 115:215-28).
The cytotoxicity test was performed on a total of five representative cancer cell lines. The cytotoxicity of each compound was measured using an SRB assay method (human lung cancer cells, A549; human colon cancer cells, HCT116; human breast cancer cells, MDA-MB231; human liver cancer cells, SK-HEP-1; human gastric cancer cells, SNU638).
Each cell line was sub-cultured once or twice using Roswell Park Memorial Institute (RPMI) medium 1640 (RPMI 1640) or Dulbecco's Modified Eagle's Medium (DMEM) containing 10% fetal bovine serum (FBS) inactivated by heat, 100 units/mL of penicillin, 100 μg/mL of streptomycin, and 250 ng/mL of amphotericin B at 37° C. for 1 week under a 5% CO2 condition. All cells were […] in liquid nitrogen, and then passaged three or more times to be used in the experiment. The effects of compounds on cell growth were measured using a sulforhodamine B (SRB) method (Lee et al (1998) Chemico-Biol Interact 115:215-228).
Specifically, each human cancer cell line used in the present invention was sub-cultured in an RPMI medium containing 10% FBS, 1% PSF, and the like, and 10 μl of a sample dissolved in 10% DMSO and 190 μl (4-5×10^4 cells/ml) of the cell suspension were added to each well of a 96-well plate and cultured for 3 days. 190 μl of the cell suspension was added to at least 16 wells and cultured for 30 minutes, and used as a zero-day control. The cultured cells were fixed with 10% trichloroacetic acid (TCA) and then stained with an SRB solution, and the staining solution was dissolved with 10 mM Tris-base, and then absorbance at 515 nm was measured. Using the case of culturing in 10% DMSO as a control, cell viability according to each test material treatment was measured using Equation 1 below. Etoposide was used as a positive control. % Viability=(OD(sample)−OD(0-day))/(OD(10% DMSO)−OD(0-day))×100 [Equation 1]
Assuming that a control not-treated with the sample was set at 100%, the values of sample-treated groups were expressed as percentage with respect to the control, and each test material treatment results were obtained as the mean±SEM of two or three tests. The IC50 value is the concentration of the test material for a 50% survival rate.

[2] = target: T1, DOT1L (Homo sapiens, UniProt Q8TEK3); test: Inhibition of DOT1L methylation (H3K79) by western blotting; format: cell-based; settings: breast cancer cell line, FIG. 3
T1 construct: based on the finding that DOT1L was overexpressed in the breast cancer cell line; endogenous in cells
Text: As confirmed in Example 1, based on the finding that DOT1L was overexpressed in the breast cancer cell line, the effects of the derivatives of the present invention on the methylation of the histone 3 lysine 79 (H3K79) residue, which is an in-vivo target of DOT1L, were examined by western blotting.

[3] = target: T1, DOT1L; test: Target selectivity for H3K79 residue in MDA-MB-231 cell line, western blot; format: cell-based
Method: Compound 2 (X=ph) was selected from among selenopsammaplin A and the derivatives thereof, and in order to confirm the selectivity thereof for the H3K79 residue, which is an intracellular DOT1L target, an experiment was performed as follows. The triple-negative breast cancer cell line MDA-MB-231 was spread at a concentration of 2×10^6 cells/well on a DMEM medium containing 10% FBS in a 6-well plate, cultured at 37° C. for 24 hours under a 5% CO2 condition, and then washed twice with phosphate-buffered saline (PBS). Attached cells were recovered and washed twice with PBS, and then boiling 2× sample loading buffer (250 mM Tris-HCl (pH 6.8), 4% SDS, 10% glycerol, 0.006% bromophenol blue, 2% β-mercaptoethanol, 50 mM sodium fluoride, and 5 mM sodium orthovanadate) was added thereto to disrupt the cells and the cells were left at 100° C. for 10 minutes. After cooling, the cells were stored at […] and […] at 37° C. immediately before use in protein quantification and electrophoresis. 10 μg of proteins were electrophoresed at 100 V for 2 hours using a 12% SDS-polyacrylamide gel (#456-1036, Bio-Rad, Hercules, Calif.). […] These were quantified using ImageJ software and the results thereof are illustrated in FIG. 4B.

[4] = tested on: breast cancer metastasis; test: Breast cancer metastasis to organs in animal model, IVIS; format: in vivo, nude BALB/c mice; settings: 5 mg/kg, 15 mg/kg
Text: Organs such as the lungs, liver, spleen, and kidneys were extracted from the animal model of Example 8, and the degrees of cancer metastasis in the control and the administered groups were indirectly photographed using IVIS (PerkinElmer) and are illustrated in FIG. 9.

T1 sequence (Q8TEK3 whole entry): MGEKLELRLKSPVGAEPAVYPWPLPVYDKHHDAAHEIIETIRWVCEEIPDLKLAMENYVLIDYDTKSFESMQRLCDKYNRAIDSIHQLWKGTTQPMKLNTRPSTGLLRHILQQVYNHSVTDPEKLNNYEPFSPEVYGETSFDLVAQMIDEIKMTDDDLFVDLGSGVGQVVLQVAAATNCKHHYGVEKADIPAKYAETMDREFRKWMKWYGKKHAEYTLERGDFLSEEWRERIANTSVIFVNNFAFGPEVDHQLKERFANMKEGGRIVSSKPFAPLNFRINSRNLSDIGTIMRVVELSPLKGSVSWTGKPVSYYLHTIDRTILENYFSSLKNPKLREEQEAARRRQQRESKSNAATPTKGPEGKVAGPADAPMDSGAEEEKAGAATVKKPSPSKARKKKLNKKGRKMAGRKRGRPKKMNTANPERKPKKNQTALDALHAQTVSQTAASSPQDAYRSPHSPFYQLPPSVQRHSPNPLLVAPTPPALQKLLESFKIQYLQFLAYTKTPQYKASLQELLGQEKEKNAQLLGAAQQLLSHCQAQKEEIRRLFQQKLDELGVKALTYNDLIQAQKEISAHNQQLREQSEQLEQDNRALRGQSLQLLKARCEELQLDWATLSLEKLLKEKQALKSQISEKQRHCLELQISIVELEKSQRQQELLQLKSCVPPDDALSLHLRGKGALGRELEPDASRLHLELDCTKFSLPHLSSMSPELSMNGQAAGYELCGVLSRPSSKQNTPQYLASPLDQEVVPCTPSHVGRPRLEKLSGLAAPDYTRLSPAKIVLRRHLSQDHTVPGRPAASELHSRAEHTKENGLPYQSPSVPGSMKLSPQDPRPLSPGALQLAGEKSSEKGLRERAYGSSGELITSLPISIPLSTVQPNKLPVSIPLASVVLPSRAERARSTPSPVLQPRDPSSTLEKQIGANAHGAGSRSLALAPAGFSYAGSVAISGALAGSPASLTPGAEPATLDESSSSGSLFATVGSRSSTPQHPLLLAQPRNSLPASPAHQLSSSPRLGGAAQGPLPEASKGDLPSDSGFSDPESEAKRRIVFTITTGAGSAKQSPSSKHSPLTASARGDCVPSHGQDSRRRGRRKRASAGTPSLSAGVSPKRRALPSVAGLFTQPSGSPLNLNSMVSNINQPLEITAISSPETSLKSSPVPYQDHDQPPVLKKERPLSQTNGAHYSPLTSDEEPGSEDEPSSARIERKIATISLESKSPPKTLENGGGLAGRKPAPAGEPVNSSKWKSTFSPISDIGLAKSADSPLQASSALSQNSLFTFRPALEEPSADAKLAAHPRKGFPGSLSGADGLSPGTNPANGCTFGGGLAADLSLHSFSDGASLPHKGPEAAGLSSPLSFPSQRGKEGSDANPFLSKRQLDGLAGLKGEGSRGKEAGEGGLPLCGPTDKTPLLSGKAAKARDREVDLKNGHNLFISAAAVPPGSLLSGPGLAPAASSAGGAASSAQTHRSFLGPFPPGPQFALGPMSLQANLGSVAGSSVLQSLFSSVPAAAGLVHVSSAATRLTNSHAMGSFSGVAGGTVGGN

O=C(NCC[Se][Se]CCNC(=O)/C(Cc1ccccc1)=N/O)/C(Cc1ccccc1)=N/O [Compound 2, (2E,2′E)-N,N′-(diselenediylbis(ethane-2,1-diyl))bis(2-(hydroxyimino)-3-phenylpropanamide)]
pIC50 [1]: 6.92 | inhibitory effect on H3K79 methylation [2]: excellent | methylation of other histone 3 residues ([3]; MDA-MB-231, H3K4me2, H3K27me2, H3K36me2 western blot, FIG. 4): without changing | methylation of H3K79 (residue 79) ([3]; MDA-MB-231, H3K79me2 western blot, FIG. 4, compared to psammaplin A): specifically suppressed | degree of metastasis to each organ (lungs, liver, spleen, kidneys) [4]: significantly reduced | degree of metastasis to the lungs [4]: greatly reduced
